Results on 35 molecules are retold here after US9914711B2 (priority 2013, dated 2018).

One data set has as its system C. violaceum CV026. The data set can be described thus: Preliminary screening of bacterial quorum sensing agonistic / inhibitory activity on LB plate (purple stain / white circle). The data set is classed as cell-based. The note with it: for Regulatory activity (bacterial quorum sensing regulatory activity): 1 μl of 0.065M compound spotted on plate, inhibitory screen with inducer C6-HSL, 30° C., 16-18 h; for Effect on bacterial quorum sensing (summary in words): summary of the activity evaluation experiments. On the procedure: 1.1 Preparation work: different compounds to be tested (Compounds 1-40 prepared in Example 1-40) were weighted and then were dissolved in 200 μl DMSO (dimethyl sulfoxide) to prepare a solution at a concentration of 0.065M. 5.0 mg inducer, N-hexanoyl homoserine lactone (C6-HSL, purchased from Sigma Company), was weighted and was dissolved in 200 μl DMSO (at a concentration of 0.125M), and the compounds and the inducer were stored at 4 for further use. C. violaceum CV026 (donated by Professor McLean J C from Texas State University) in LB culture medium (LB culture medium consisting of 1% (percentage by mass) tryptone, 0.5% (percentage by mass) yeast extract, 1% (percentage by mass) NaCl and water) was cultured under shaking in a shaker at 30, 200 rpm to get the culture medium for further use.
1.2 Method for preliminary screening of compounds having agonistic activity: 400 μl C. violaceum CV026 (at a bacterial concentration of 1×10^8/ml) was added to 5 ml melted semi-solid LB culture medium, and was mixed well; the mixed culture medium was poured into a solid LB plate; when the mixed culture medium was solidified on the plate, lattice was made thereon; 1 μl of the dissolved compounds to be tested (Compounds 1-40 in Examples 1-40, at a concentration of 0.065M) was spotted on the plate; when the compounds on the plate was dried in air, the plate was put in a 30° C. oven upside down and was cultured for a period of 16-18 h. If the compound to be tested has an agonistic effect on C. violaceum CV026 on the LB plate, purple stain will be induced on the LB plate. The agonistic activity of a compound is determined depending on whether purple stain is induced for C. violaceum CV026 on LB plate as well as the purple depth.
1.3 Method for preliminary screening of compounds having inhibitory activity: the inducer C6-HSL was diluted gradiently to 1000 times by means of 2-fold dilution; 15 μl diluted inducer and 400 μl C. violaceum CV026 in exponential phase (at a bacterial concentration of 1×10^8/ml) were mixed well and then were added to a 5 ml melted semi-solid LB culture medium; the mixture of inducer, C. violaceum, and semi-solid LB was poured onto a solid LB plate; when the mixture was solidified on the plate, lattice was made thereon: 1 μl of the dissolved compounds to be tested (Compounds 1-40 in Examples 1-40, at a concentration of 0.065M) was spotted on the plate; when the compounds on the plate were dried in air, the plate was put in a 30° C. oven upside down and was cultured for a period of 16-18 h. If the compound to be tested has an inhibitory effect on C. violaceum CV026 on the LB plate, white circle will appear on the LB plate. The inhibitory activity of a compound is preliminary determined depending on the size of the white circle appeared after C. violaceum CV026 was inhibited on LB plate.
It is found after preliminary screening that 22 compounds according to the invention have bacterial quorum sensing regulatory activity, and the screening result was shown in Table 1.

Molecules are shown by their SMILES.

For orientation: melting point means the temperature of the solid-liquid transition. `O=C(NN1CCOC1=O)c1cccc(F)c1` gave a melting point of 166 to 169 °C.

Take `Cc1ccc(NC(=O)NN2CCOC2=O)cc1`: the melting point fell in the range of 205 to 207 °C.

In turn, `Cc1cccc(NC(=O)NN2CCOC2=O)c1` yielded a melting point of 191 to 192 °C.

The molecule `O=C(Nc1cccc(Br)c1)NN1CCOC1=O` gave a melting point of 197 to 199 °C.

In turn, `O=C(Nc1ccc(OC(F)(F)F)cc1)NN1CCOC1=O` returned a melting point of 205 to 206 °C.

Take `O=C(NN1CCOC1=O)c1ccc(F)cc1` [Compound 1, 4-fluoro-N-(2-oxo-oxazolidin-3-yl)benzamide]: the melting point lay in the range of 189 to 192 °C.

`CC(C)(C)c1ccc(C(=O)NN2CCOC2=O)cc1` [Compound 2, 4-tert-butyl-N-(2-oxo-oxazolidin-3-yl)benzamide] yielded a melting point of 187 to 189 °C. In the data set with C. violaceum CV026, the “Regulatory activity (bacterial quorum sensing regulatory activity)” value (“Regulatory activity” below) is “−” and the “Effect on bacterial quorum sensing (summary in words)” value (“Effect on bacterial quorum sensing” for short) is on record as “inhibitory effect on bacterial quorum sensing”.

The molecule `O=C(NN1CCOC1=O)c1ccc(CCl)cc1` [Compound 3, 4-chloromethyl-N-(2-oxo-oxazolidin-3-yl)benzamide] registered a melting point of 206 to 208 °C. Besides, in the data set with C. violaceum CV026, the “Regulatory activity” value was “−” and the “Effect on bacterial quorum sensing” value is reported as “inhibitory effect on bacterial quorum sensing”.

For the molecule `O=C(NN1CCOC1=O)c1ccccc1Cl` [Compound 4, 2-chloro-N-(2-oxo-oxazolidin-3-yl)benzamide], the melting point was in the range of 166 to 168 °C. Further, in the data set on C. violaceum CV026, the “Regulatory activity” value is recorded as “±”; the “Effect on bacterial quorum sensing” value was “both an agonizing effect and an inhibitory effect”.

For the molecule `O=C(NN1CCOC1=O)c1cccc(Cl)c1` [Compound 5, 3-chloro-N-(2-oxo-oxazolidin-3-yl)benzamide], the melting point lay within 151 to 152 °C. In the data set on C. violaceum CV026, the “Regulatory activity” value is “+”.

`O=C(NN1CCOC1=O)c1ccccc1F` [Compound 6, 2-fluoro-N-(2-oxo-oxazolidin-3-yl)benzamide]: the melting point lay within 124 to 127 °C.

Take `Cc1cccc(C(=O)NN2CCOC2=O)c1` [Compound 8, 3-methyl-N-(2-oxo-oxazolidin-3-yl)benzamide]: the melting point lay in the range of 148 to 150 °C. In addition, the “Regulatory activity” value with C. violaceum CV026 is listed as “+”.

Turning to `O=C(NN1CCOC1=O)c1ccc(F)cc1` [Compound 9, 4-fluoro-N-(2-oxo-oxazolidin-3-yl)benzamide], the “Regulatory activity” value with C. violaceum CV026 is reported as “+”.

With `O=C(NN1CCOC1=O)c1ccccc1C(F)(F)F` [Compound 10, 2-trifluoromethyl-N-(2-oxo-oxazolidin-3-yl)benzamide], the melting point was in the range of 139 to 141 °C. The “Regulatory activity” value in the data set on C. violaceum CV026 is “+”.

In the case of `CCCCNC(=O)NN1CCOC1=O` [Compound 15, 1-(2-oxo-oxazolidin-3-yl)-3-butyl urea], the melting point lay within 98 to 100 °C.

The molecule `CCCCCNC(=O)NN1CCOC1=O` [Compound 16, 1-(2-oxo-oxazolidin-3-yl)-3-pentyl urea] gave a melting point of 83 to 86 °C.

The molecule `CCCCCCNC(=O)NN1CCOC1=O` [Compound 17, 1-(2-oxo-oxazolidin-3-yl)-3-hexyl urea] displayed a melting point of 74 to 75 °C.

For `CCCCCCCNC(=O)NN1CCOC1=O` [Compound 18, 1-(2-oxo-oxazolidin-3-yl)-3-heptyl urea], the melting point is 68 to 69 °C. For the same molecule, in the data set with C. violaceum CV026, the “Regulatory activity” value was “−” and the “Effect on bacterial quorum sensing” value is “inhibitory effect on bacterial quorum sensing”.

For the molecule `CCCCCCCCNC(=O)NN1CCOC1=O` [Compound 19, 1-(2-oxo-oxazolidin-3-yl)-3-octyl urea], the melting point fell in the range of 64 to 65 °C. In the data set with C. violaceum CV026, the “Regulatory activity” value was “−” and the “Effect on bacterial quorum sensing” value is “inhibitory effect on bacterial quorum sensing”.

In turn, `O=C(Nc1ccc(Br)cc1)NN1CCOC1=O` [Compound 20, 1-(4-bromophenyl)-3-(2-oxo-oxazolidin-3-yl)urea] gave a melting point of 212 to 215 °C.

Take `O=C(NC1CCCCC1)NN1CCOC1=O` [Compound 22, 1-cyclohexyl-3-(2-oxo-oxazolidin-3-yl)urea]: the melting point is 203 to 205 °C.

Take `O=C(NCc1ccccc1)NN1CCOC1=O` [Compound 23, 1-benzyl-3-(2-oxo-oxazolidin-3-yl)urea]: the melting point was in the range of 160 to 161 °C.

Take `O=C(NCCc1ccccc1)NN1CCOC1=O` [Compound 24, 1-(2-oxo-oxazolidin-3-yl)phenyl ethyl urea]: the melting point lay within 123 to 125 °C.

Molecule `O=C1OCCN1NC(=S)Nc1ccccc1` [Compound 27, 1-(2-oxo-oxazolidin-3-yl)phenylthiourea] registered a melting point of 191 to 193 °C.

For `O=C1OCCN1NC(=S)Nc1ccc(F)cc1` [Compound 28, 1-(4-fluorophenyl)-3-(2-oxo-oxazolidin-3-yl)sulfourea], the melting point fell in the range of 190 to 191 °C.

In turn, `O=C(Cc1ccc(F)cc1)NN1CCOC1=O` [Compound 31, 2-(4-fluorophenyl)-N-(2-oxo-oxazolidin-3-yl)acetamide] gave a melting point of 131 to 134 °C. Moreover, in the data set on C. violaceum CV026, the “Regulatory activity” value is “+”.

`COc1ccc(CC(=O)NN2CCOC2=O)cc1` [Compound 32, 2-(4-methoxyphenyl)-N-(2-oxo-oxazolidin-3-yl)acetamide] registered a melting point of 90 to 92 °C. Besides, in the data set on C. violaceum CV026, the “Regulatory activity” value was “+”.

`O=C(Cc1ccc([N+](=O)[O-])cc1)NN1CCOC1=O` [Compound 33, 2-(4-nitrophenyl)-N-(2-oxo-oxazolidin-3-yl)acetamide] gave a melting point of 180 to 183 °C. In addition, the “Regulatory activity” value in the data set on C. violaceum CV026 is given as “+”.

For `O=C(Cc1ccc(Cl)cc1)NN1CCOC1=O` [Compound 34, 2-(4-chlorophenyl)-N-(2-oxo-oxazolidin-3-yl)acetamide], the melting point lay in the range of 124 to 127 °C. Further, in the data set on C. violaceum CV026, the “Regulatory activity” value is “+”.

`Cc1ccc(CC(=O)NN2CCOC2=O)cc1` [Compound 35, 2-(4-tolyl)-N-(2-oxo-oxazolidin-3-yl)acetamide]: the melting point fell in the range of 108 to 111 °C. For the same molecule, the “Regulatory activity” value with C. violaceum CV026 was “+”.

On to `O=C(CCc1ccc([N+](=O)[O-])cc1)NN1CCOC1=O` [Compound 36], for which the melting point is 143 to 145 °C. In addition, in the data set with C. violaceum CV026, the “Regulatory activity” value is recorded as “+”.

`O=C(CCc1ccccc1)NN1CCOC1=O` [Compound 37]: the “Regulatory activity” value in the data set on C. violaceum CV026 is listed as “+”.

For the molecule `Cc1ccc(CCC(=O)NN2CCOC2=O)cc1` [Compound 38], the melting point was 146 to 148 °C. The “Regulatory activity” value in the data set with C. violaceum CV026 is listed as “+”.

Turning to `O=C(CCc1ccc(Cl)cc1)NN1CCOC1=O` [Compound 39], the melting point was 134 to 136 °C. In the data set on C. violaceum CV026, the “Regulatory activity” value was “+”.

The molecule `O=C(CCCc1ccccc1)NN1CCOC1=O` [Compound 40, N-(2-oxo-oxazolidin-3-yl)-4-phenyl butanamide] returned a melting point of 104 to 107 °C. For the same molecule, in the data set on C. violaceum CV026, the “Regulatory activity” value is on record as “+”.
